Experimental data published in patent US4652562A, “Quinoline derivatives and pharmaceutical compositions” (Egis Gyogyszergyar, priority 1985, dated 1987).

Legend:
[1] = system: hypoxic Chinese hamster ovary cells; test: Radiosensitization of hypoxic Chinese hamster ovary cells, radiation survival curves (Do, Dq, N); format: cell-based; conditions: for Do (mean lethal dose): hypoxic CHO cells, untreated controls 3.75-3.8 Gy; for Dq (quasi threshold dose): Dq = Do ln N, minimum dose necessary to appearance of cell killing
Source text: As is known [T. W. Wong, G. F. Whitmore and S. Gulyas: Radiat. Res. 75, 541-555 (1978)], parameters derived from radiation survival curves can be used for characterization of modifying effect, e.g. the slope of the exponential portion of survival curve and the calculated mean lethal dose (Do) as well as the overall extrapolation number (N).
The dose multiplication radiosensitization (DMR) means the ability of a given compound to increase the slope of the survival curve and consequently to decrease the mean lethal dose (Do).
On the effect of dose-additive radiosensitization (DAR) there is a reduction in the shoulder region of radiation survival curves, and in the best cases the sigmoid type survival curves characteristic of mammalian cells change into exponential ones.
For the degree of radiation modification, the quasi threshold dose (Dq) can be used, as well. This dose represents the width of shoulder region of radiation survival curves (Dq =Do ln N). The meaning of this measure from radiobiological point of view is the minimal dose necessary to produce appreciable cell killing effect.
1. […] According to the literature data, studies were undertaken on the same test-systems [Chinese hamster ovary cells cultured in vitro (CHO) and under similar circumstances (oxygenic- and hypoxic conditions, α-MEM with 10% foetal calf serum)].
Experiments were undertaken with hypoxic Chinese hamster ovary cells.
4. Determination of the quasi threshold dose (Dq). These values indicate the minimum dose necessary to the appearance of the end point (cell killing) studied from biological point of view.

[2] = cited from earlier work
[3] = Toxicity in test animals (CFLP mice), LD50 per os; conditions: mouse, in vivo, po
hypoxic cells = conditions: literature (Wong et al. 1978); cited from earlier work

| Structure (SMILES) | Do (mean lethal dose) [1] [Gy] | dose-multiplicative or dose-additive radiosensitization ([2]; 0° C., depending on drug concentration, Harris et al. 1975) | toxicity ([2]; 37° C.) | LD50 [3] [mg/kg] | Dq (quasi threshold dose) [1] [Gy] | degree of dose-multiplicative and dose-additive radiosensitization (hypoxic cells) | Dq (quasi threshold dose) ([1]; listed as misonidazole) |
| --- | --- | --- | --- | --- | --- | --- | --- |
| CN(C)C(=O)N=NC(=O)N(C)C [Diamide, tetramethyl-diazene-dicarboxamide] | 3.3 | either dose-multiplicative- or dose-additive-radiosensitization could be observed at a lower temperature (0° C.) depending on the drug concentration applied, but both effects did not appear simultaneously | extremely toxic | – | – | – | – |
| NC(=Nc1c([N+](=O)[O-])cnc2ccccc12)N1CCOCC1 [Example 1, N-(3-Nitro-4-quinolyl)-morpholino carboxamidine] | 1.7 | – | – | > 2000 | 0 | – | – |
| COCC(O)Cn1ccnc1[N+](=O)[O-] (stereo not shown) [Misonidazole, 3-methoxy-1-(2-nitro-1-imidazole-1-yl)-2-propanol] | 2.5 | – | – | – | 5 | only in a small degree | above 5 Gy |
